Source: US9546156B2, “N-bicyclic aryl,N'-pyrazolyl urea, thiourea, guanidine cyanoguanidine compounds as TrkA kinase inhibitors” (Array BioPharma Inc., priority 2012, dated 2017)

Columns and labels:
Assay in all cases: Off-target kinase profiling (KinaseProfiler)
Type in all cases: biochemical
Conditions in all cases: 10 μM, ATP near Km
MELK = target: T1, MELK (Homo sapiens, UniProt Q14680)
T1 construct: purchased Millipore, Inc. (KinaseProfiler service)
Method: (§1) A representative compound (Example 16) of the invention was tested for off-target kinase activity at a concentration of 10 μM by Millipore, Inc. in their KinaseProfiler™ service against all the kinases available in their full kinase panel. The compound was run in duplicate at a concentration of ATP near the Km for each individual kinase according to Millipore's specifications. The results are shown in Table B. Data are reported as percent of control (POC) and are the average of the two replicates.

EphB4 = target: T2, EphB4 (Homo sapiens, UniProt P54760)
T2 construct: purchased Millipore, Inc. (KinaseProfiler service)
Method: as §1

GSK3beta = target: T3, GSK3beta (Homo sapiens, UniProt P49841)
T3 construct: purchased Millipore, Inc. (KinaseProfiler service)
Method: as §1

EphA1 = target: T4, EphA1 (Homo sapiens, UniProt P21709)
T4 construct: purchased Millipore, Inc. (KinaseProfiler service)
Method: as §1

LOK = target: T5, LOK (Homo sapiens, UniProt O94804)
T5 construct: purchased Millipore, Inc. (KinaseProfiler service)
Method: as §1

Pim-2 = target: T6, Pim-2 (Homo sapiens, UniProt Q9P1W9)
T6 construct: purchased Millipore, Inc. (KinaseProfiler service)
Method: as §1

PKCbetaI = target: T7, PKCbetaI (Homo sapiens, UniProt P05771)
T7 construct: purchased Millipore, Inc. (KinaseProfiler service)
Method: as §1

MYLK = target: T8, MYLK (Homo sapiens, UniProt Q15746)
T8 construct: purchased Millipore, Inc. (KinaseProfiler service)
Method: as §1

p38delta = target: T9, p38delta (Homo sapiens, UniProt O15264)
T9 construct: purchased Millipore, Inc. (KinaseProfiler service)
Method: as §1

PKCepsilon = target: T10, PKCepsilon (Homo sapiens, UniProt Q02156)
T10 construct: purchased Millipore, Inc. (KinaseProfiler service)
Method: as §1

SGK3 = target: T11, SGK3 (Homo sapiens, UniProt Q96BR1)
T11 construct: purchased Millipore, Inc. (KinaseProfiler service)
Method: as §1

PhKgamma2 = target: T12, PhKgamma2 (Homo sapiens, UniProt P15735)
T12 construct: purchased Millipore, Inc. (KinaseProfiler service)
Method: as §1

CK1gamma2 = target: T13, CK1gamma2 (Homo sapiens, UniProt P78368)
T13 construct: purchased Millipore, Inc. (KinaseProfiler service)
Method: as §1

Pim-3 = target: T14, Pim-3 (Homo sapiens, UniProt Q86V86)
T14 construct: purchased Millipore, Inc. (KinaseProfiler service)
Method: as §1

PTK6 = target: T15, PTK6 (Homo sapiens, UniProt Q13882)
T15 construct: purchased Millipore, Inc. (KinaseProfiler service)
Method: as §1

TNK2 = target: T16, TNK2 (Homo sapiens, UniProt Q07912)
T16 construct: purchased Millipore, Inc. (KinaseProfiler service)
Method: as §1

PKCdelta = target: T17, PKCdelta (Homo sapiens, UniProt Q05655)
T17 construct: purchased Millipore, Inc. (KinaseProfiler service)
Method: as §1

SRPK1 = target: T18, SRPK1 (Homo sapiens, UniProt Q96SB4)
T18 construct: purchased Millipore, Inc. (KinaseProfiler service)
Method: as §1

JAK3 = target: T19, JAK3 (Homo sapiens, UniProt P52333)
T19 construct: purchased Millipore, Inc. (KinaseProfiler service)
Method: as §1

Rsk3 = target: T20, Rsk3 (Homo sapiens, UniProt Q15349)
T20 construct: purchased Millipore, Inc. (KinaseProfiler service)
Method: as §1

PKD2 = target: T21, PKD2 (Homo sapiens, UniProt Q9BZL6)
T21 construct: purchased Millipore, Inc. (KinaseProfiler service)
Method: as §1

p38alpha = target: T22, p38alpha (Homo sapiens, UniProt Q16539)
T22 construct: purchased Millipore, Inc. (KinaseProfiler service)
Method: as §1

PDGFRbeta = target: T23, PDGFRbeta (Homo sapiens, UniProt P09619)
T23 construct: purchased Millipore, Inc. (KinaseProfiler service)
Method: as §1

CAMK2d = target: T24, CAMK2d (Homo sapiens, UniProt Q13557)
T24 construct: purchased Millipore, Inc. (KinaseProfiler service)
Method: as §1

FAK = target: T25, FAK (Homo sapiens, UniProt Q05397)
T25 construct: purchased Millipore, Inc. (KinaseProfiler service)
Method: as §1

Fyn = target: T26, Fyn (Homo sapiens, UniProt P06241)
T26 construct: purchased Millipore, Inc. (KinaseProfiler service)
Method: as §1

TAO1 = target: T27, TAO1 (Homo sapiens, UniProt Q7L7X3)
T27 construct: purchased Millipore, Inc. (KinaseProfiler service)
Method: as §1

WNK3 = target: T28, WNK3 (Homo sapiens, UniProt Q9BYP7)
T28 construct: purchased Millipore, Inc. (KinaseProfiler service)
Method: as §1

GRK7 = target: T29, GRK7 (Homo sapiens, UniProt Q8WTQ7)
T29 construct: purchased Millipore, Inc. (KinaseProfiler service)
Method: as §1

Txk = target: T30, Txk (Homo sapiens, UniProt P42681)
T30 construct: purchased Millipore, Inc. (KinaseProfiler service)
Method: as §1

IRR = target: T31, IRR (Homo sapiens, UniProt P14616)
T31 construct: purchased Millipore, Inc. (KinaseProfiler service)
Method: as §1

Plk3 = target: T32, Plk3 (Homo sapiens, UniProt Q9H4B4)
T32 construct: purchased Millipore, Inc. (KinaseProfiler service)
Method: as §1

NEK2 = target: T33, NEK2 (Homo sapiens, UniProt P51955)
T33 construct: purchased Millipore, Inc. (KinaseProfiler service)
Method: as §1

IRAK4 = target: T34, IRAK4 (Homo sapiens, UniProt Q9NWZ3)
T34 construct: purchased Millipore, Inc. (KinaseProfiler service)
Method: as §1

CLK3 = target: T35, CLK3 (Homo sapiens, UniProt P49761)
T35 construct: purchased Millipore, Inc. (KinaseProfiler service)
Method: as §1

CAMK2g = target: T36, CAMK2g (Homo sapiens, UniProt Q13555)
T36 construct: purchased Millipore, Inc. (KinaseProfiler service)
Method: as §1

Flt3 = target: T37, Flt3 (Homo sapiens, UniProt P36888)
T37 construct: purchased Millipore, Inc. (KinaseProfiler service)
Method: as §1

TrkA = target: T38, TrkA (Homo sapiens, UniProt P04629)
T38 construct: purchased Millipore, Inc. (KinaseProfiler service)
Method: as §1

MLK1 = target: T39, MLK1 (Homo sapiens, UniProt P80192)
T39 construct: purchased Millipore, Inc. (KinaseProfiler service)
Method: as §1

Lyn = target: T40, Lyn (Homo sapiens, UniProt P07948)
T40 construct: purchased Millipore, Inc. (KinaseProfiler service)
Method: as §1

PKCiota = target: T41, PKCiota (Homo sapiens, UniProt P41743)
T41 construct: purchased Millipore, Inc. (KinaseProfiler service)
Method: as §1

NEK3 = target: T42, NEK3 (Homo sapiens, UniProt P51956)
T42 construct: purchased Millipore, Inc. (KinaseProfiler service)
Method: as §1

T2 sequence (P54760 16-987): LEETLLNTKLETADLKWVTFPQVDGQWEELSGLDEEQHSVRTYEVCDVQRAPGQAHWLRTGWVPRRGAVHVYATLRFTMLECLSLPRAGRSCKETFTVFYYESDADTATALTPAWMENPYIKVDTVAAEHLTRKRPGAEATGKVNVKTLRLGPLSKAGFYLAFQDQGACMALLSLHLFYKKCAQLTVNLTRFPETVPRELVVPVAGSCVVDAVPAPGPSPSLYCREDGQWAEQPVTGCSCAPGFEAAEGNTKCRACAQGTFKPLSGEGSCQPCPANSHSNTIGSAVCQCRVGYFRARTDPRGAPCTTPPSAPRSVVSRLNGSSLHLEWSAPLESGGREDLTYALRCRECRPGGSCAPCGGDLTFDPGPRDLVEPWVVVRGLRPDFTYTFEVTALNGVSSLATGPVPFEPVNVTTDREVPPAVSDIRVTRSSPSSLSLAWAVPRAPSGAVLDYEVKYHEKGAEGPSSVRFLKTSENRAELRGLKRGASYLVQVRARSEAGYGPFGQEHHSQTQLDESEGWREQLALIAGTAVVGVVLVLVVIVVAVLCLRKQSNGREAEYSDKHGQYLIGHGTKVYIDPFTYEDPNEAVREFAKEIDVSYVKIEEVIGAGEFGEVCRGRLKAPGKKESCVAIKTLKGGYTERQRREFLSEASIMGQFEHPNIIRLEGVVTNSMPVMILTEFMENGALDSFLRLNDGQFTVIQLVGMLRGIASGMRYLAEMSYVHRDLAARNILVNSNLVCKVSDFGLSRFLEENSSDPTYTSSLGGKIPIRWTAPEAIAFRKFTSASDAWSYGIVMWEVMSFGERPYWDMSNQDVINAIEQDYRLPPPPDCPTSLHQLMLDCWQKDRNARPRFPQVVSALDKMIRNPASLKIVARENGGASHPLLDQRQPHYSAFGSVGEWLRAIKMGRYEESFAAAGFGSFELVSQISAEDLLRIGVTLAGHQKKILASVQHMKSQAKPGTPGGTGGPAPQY
T5 sequence (O94804 whole entry): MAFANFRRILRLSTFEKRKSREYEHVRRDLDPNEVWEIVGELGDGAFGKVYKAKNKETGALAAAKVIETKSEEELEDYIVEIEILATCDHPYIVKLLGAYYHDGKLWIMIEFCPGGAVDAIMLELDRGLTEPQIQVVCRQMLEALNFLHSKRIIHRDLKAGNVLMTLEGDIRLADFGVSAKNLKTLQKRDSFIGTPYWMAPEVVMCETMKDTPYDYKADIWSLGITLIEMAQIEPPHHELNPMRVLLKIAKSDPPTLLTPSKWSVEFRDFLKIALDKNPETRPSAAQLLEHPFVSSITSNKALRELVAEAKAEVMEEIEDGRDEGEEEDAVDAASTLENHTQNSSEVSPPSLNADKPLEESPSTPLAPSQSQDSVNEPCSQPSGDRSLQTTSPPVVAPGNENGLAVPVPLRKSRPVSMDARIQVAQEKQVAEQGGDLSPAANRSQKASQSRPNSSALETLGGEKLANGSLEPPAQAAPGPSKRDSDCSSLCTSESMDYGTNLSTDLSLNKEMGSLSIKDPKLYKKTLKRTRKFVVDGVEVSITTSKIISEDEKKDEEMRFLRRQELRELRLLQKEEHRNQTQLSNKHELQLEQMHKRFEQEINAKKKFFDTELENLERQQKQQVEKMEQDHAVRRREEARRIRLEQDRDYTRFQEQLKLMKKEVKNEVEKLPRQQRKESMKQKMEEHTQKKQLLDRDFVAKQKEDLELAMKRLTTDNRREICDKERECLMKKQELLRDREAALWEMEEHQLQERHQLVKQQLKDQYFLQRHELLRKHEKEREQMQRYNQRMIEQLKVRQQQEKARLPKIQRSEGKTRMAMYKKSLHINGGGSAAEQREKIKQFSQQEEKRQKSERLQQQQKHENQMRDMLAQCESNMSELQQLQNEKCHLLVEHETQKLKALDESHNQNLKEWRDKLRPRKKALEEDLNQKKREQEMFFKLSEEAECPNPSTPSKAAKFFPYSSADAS
T28 sequence (Q9BYP7 whole entry): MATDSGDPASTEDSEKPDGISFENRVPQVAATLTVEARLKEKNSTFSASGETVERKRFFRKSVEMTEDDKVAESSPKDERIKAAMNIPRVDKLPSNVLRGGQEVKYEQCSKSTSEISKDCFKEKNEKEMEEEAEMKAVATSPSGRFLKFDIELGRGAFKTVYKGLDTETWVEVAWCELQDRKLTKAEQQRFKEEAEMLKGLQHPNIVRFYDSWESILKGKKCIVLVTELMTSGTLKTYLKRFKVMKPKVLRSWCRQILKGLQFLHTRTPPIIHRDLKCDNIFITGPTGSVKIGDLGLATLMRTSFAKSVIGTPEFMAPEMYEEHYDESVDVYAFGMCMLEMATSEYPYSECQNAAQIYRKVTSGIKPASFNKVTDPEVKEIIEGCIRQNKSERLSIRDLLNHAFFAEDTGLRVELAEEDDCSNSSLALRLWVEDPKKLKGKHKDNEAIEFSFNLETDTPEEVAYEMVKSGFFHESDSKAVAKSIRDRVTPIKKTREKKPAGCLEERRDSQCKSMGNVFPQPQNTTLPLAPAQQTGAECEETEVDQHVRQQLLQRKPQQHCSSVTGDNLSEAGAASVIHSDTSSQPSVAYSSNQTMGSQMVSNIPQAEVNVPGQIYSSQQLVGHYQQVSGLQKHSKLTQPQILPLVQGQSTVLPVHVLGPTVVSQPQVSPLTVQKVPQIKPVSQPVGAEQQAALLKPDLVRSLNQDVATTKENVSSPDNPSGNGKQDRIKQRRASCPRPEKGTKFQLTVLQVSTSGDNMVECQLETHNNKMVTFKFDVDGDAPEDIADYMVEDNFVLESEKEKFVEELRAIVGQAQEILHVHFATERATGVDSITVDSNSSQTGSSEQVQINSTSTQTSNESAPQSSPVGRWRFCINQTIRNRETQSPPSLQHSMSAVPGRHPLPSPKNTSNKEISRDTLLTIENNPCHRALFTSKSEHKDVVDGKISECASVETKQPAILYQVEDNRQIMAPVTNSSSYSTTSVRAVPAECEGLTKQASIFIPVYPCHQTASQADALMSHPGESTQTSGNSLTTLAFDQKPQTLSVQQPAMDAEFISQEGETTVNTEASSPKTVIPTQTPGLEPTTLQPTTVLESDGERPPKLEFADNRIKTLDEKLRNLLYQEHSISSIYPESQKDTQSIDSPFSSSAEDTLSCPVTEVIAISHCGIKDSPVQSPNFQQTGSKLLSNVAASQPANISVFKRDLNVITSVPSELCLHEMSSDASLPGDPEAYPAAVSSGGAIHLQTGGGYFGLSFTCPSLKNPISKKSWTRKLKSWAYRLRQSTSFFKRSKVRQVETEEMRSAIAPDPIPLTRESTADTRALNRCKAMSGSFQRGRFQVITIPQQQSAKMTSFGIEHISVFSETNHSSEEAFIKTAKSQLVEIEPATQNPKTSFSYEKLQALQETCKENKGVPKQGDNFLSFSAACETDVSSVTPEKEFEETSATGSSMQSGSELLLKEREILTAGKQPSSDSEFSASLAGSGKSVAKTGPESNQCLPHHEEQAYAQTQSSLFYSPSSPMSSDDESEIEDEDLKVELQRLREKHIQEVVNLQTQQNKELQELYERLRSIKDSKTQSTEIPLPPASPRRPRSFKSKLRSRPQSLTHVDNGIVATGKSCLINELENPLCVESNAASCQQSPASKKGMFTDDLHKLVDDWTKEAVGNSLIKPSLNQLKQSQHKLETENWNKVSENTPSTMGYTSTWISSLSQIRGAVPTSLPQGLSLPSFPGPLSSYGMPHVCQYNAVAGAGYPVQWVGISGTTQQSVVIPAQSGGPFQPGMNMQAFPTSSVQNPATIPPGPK
T37 sequence (P36888 27-993): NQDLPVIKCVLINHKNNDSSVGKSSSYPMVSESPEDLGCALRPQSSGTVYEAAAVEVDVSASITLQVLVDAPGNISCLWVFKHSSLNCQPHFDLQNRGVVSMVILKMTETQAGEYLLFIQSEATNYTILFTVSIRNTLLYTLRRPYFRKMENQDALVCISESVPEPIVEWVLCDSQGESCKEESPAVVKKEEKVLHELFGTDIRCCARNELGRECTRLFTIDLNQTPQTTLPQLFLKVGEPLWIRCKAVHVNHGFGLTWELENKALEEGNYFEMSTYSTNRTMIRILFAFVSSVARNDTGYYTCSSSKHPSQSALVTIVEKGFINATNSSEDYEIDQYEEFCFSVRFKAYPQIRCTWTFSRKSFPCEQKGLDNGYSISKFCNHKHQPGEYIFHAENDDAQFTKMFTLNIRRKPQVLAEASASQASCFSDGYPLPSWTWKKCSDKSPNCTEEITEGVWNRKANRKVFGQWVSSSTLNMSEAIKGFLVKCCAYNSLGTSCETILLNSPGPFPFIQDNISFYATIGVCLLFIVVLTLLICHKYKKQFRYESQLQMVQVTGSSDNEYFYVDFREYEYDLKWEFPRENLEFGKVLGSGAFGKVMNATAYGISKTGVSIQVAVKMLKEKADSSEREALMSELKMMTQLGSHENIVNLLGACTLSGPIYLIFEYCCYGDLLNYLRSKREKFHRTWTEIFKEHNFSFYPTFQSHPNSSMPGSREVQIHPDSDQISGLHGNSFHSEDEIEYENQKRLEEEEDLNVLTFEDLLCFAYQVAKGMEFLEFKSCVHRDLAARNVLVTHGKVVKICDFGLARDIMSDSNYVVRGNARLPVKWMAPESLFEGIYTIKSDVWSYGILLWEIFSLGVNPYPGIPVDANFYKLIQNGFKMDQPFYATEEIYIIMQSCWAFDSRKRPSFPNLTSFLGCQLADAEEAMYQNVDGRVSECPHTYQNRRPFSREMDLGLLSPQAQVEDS
T22 sequence (Q16539 whole entry): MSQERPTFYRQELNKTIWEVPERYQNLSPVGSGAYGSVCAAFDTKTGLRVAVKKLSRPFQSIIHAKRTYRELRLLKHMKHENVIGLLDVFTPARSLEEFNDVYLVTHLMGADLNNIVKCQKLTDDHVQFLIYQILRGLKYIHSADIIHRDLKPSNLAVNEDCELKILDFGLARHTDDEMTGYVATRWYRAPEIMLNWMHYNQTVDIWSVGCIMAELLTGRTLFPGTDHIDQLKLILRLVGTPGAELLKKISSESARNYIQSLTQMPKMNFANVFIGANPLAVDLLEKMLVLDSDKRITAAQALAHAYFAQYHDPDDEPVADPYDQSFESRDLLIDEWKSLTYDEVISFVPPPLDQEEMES

- Avg POC (MELK): 135.5 POC
- Avg POC (EphB4): 145.5 POC
- Avg POC (GSK3beta): 212 POC
- Avg POC (EphA1): 104.5 POC
- Avg POC (LOK): 120.5 POC
- Avg POC (Pim-2): 141.5 POC
- Avg POC (PKCbetaI): 97 POC
- Avg POC (MYLK): 109.5 POC
- Avg POC (p38delta): 121 POC
- Avg POC (PKCepsilon): 137 POC
- Avg POC (SGK3): 131.5 POC
- Avg POC (PhKgamma2): 118 POC
- Avg POC (CK1gamma2): 124.5 POC
- Avg POC (Pim-3): 113.5 POC
- Avg POC (PTK6): 114.5 POC
- Avg POC (TNK2): 115 POC
- Avg POC (PKCdelta): 111.5 POC
- Avg POC (SRPK1): 119 POC
- Avg POC (JAK3): 131.5 POC
- Avg POC (Rsk3): 106.5 POC
- Avg POC (PKD2): 106 POC
- Avg POC (p38alpha): 117 POC
- Avg POC (PDGFRbeta): 136.5 POC
- Avg POC (CAMK2d): 106.5 POC
- Avg POC (FAK): 113.5 POC
- Avg POC (Fyn): 112.5 POC
- Avg POC (TAO1): 104.5 POC
- Avg POC (WNK3): 122 POC
- Avg POC (GRK7): 97 POC
- Avg POC (Txk): 131 POC
- Avg POC (IRR): 102.5 POC
- Avg POC (Plk3): 103.5 POC
- Avg POC (NEK2): 105.5 POC
- Avg POC (IRAK4): 175.5 POC
- Avg POC (CLK3): 107 POC
- Avg POC (CAMK2g): 98 POC
- Avg POC (Flt3): 121.5 POC
- Avg POC (TrkA): 2 POC
- Avg POC (MLK1): 106 POC
- Avg POC (Lyn): 112 POC
- Avg POC (PKCiota): 109 POC
- Avg POC (NEK3): 122 POC
Compound: COCc1ccc2cccc(NC(=O)Nc3c(C)c(-c4cnn(C)c4)nn3-c3ccccc3)c2c1 [Example 16, 1-(1′,4-dimethyl-1-phenyl-1H,1′H-[3,4′-bipyrazol]-5-yl)-3-(7-(methoxymethyl)naphthalen-1-yl)urea]
